Reference: publication PMC5116814, “Potent, Reversible, and Specific Chemical Inhibitors of Eukaryotic Ribosome Biogenesis” (Cell, 2016)
Blank lines part the entries; values can stand above or below the molecule they belong to.

Experiments:
Type in all cases: biochemical
Mdn1 (Midasin) [1] = biological target: T1, Mdn1 (Midasin) (Schizosaccharomyces pombe, UniProt O94248); assay: ATP hydrolysis by purified enzyme (radioactive and NADH-coupled ATPase assays)
T1 construct: recombinant full-length Mdn1 (hexahistidine-tagged, insect cells)

Mdn1 (Midasin) [2] = biological target: T1, Mdn1 (Midasin); assay: NADH-coupled and radioactive ATPase assays
Mdn1 (Midasin) [3] = biological target: T1, Mdn1 (Midasin); assay: NADH-coupled steady-state ATPase assay, dose-response (saturates at […] inhibition)

T1 sequence (O94248 whole entry): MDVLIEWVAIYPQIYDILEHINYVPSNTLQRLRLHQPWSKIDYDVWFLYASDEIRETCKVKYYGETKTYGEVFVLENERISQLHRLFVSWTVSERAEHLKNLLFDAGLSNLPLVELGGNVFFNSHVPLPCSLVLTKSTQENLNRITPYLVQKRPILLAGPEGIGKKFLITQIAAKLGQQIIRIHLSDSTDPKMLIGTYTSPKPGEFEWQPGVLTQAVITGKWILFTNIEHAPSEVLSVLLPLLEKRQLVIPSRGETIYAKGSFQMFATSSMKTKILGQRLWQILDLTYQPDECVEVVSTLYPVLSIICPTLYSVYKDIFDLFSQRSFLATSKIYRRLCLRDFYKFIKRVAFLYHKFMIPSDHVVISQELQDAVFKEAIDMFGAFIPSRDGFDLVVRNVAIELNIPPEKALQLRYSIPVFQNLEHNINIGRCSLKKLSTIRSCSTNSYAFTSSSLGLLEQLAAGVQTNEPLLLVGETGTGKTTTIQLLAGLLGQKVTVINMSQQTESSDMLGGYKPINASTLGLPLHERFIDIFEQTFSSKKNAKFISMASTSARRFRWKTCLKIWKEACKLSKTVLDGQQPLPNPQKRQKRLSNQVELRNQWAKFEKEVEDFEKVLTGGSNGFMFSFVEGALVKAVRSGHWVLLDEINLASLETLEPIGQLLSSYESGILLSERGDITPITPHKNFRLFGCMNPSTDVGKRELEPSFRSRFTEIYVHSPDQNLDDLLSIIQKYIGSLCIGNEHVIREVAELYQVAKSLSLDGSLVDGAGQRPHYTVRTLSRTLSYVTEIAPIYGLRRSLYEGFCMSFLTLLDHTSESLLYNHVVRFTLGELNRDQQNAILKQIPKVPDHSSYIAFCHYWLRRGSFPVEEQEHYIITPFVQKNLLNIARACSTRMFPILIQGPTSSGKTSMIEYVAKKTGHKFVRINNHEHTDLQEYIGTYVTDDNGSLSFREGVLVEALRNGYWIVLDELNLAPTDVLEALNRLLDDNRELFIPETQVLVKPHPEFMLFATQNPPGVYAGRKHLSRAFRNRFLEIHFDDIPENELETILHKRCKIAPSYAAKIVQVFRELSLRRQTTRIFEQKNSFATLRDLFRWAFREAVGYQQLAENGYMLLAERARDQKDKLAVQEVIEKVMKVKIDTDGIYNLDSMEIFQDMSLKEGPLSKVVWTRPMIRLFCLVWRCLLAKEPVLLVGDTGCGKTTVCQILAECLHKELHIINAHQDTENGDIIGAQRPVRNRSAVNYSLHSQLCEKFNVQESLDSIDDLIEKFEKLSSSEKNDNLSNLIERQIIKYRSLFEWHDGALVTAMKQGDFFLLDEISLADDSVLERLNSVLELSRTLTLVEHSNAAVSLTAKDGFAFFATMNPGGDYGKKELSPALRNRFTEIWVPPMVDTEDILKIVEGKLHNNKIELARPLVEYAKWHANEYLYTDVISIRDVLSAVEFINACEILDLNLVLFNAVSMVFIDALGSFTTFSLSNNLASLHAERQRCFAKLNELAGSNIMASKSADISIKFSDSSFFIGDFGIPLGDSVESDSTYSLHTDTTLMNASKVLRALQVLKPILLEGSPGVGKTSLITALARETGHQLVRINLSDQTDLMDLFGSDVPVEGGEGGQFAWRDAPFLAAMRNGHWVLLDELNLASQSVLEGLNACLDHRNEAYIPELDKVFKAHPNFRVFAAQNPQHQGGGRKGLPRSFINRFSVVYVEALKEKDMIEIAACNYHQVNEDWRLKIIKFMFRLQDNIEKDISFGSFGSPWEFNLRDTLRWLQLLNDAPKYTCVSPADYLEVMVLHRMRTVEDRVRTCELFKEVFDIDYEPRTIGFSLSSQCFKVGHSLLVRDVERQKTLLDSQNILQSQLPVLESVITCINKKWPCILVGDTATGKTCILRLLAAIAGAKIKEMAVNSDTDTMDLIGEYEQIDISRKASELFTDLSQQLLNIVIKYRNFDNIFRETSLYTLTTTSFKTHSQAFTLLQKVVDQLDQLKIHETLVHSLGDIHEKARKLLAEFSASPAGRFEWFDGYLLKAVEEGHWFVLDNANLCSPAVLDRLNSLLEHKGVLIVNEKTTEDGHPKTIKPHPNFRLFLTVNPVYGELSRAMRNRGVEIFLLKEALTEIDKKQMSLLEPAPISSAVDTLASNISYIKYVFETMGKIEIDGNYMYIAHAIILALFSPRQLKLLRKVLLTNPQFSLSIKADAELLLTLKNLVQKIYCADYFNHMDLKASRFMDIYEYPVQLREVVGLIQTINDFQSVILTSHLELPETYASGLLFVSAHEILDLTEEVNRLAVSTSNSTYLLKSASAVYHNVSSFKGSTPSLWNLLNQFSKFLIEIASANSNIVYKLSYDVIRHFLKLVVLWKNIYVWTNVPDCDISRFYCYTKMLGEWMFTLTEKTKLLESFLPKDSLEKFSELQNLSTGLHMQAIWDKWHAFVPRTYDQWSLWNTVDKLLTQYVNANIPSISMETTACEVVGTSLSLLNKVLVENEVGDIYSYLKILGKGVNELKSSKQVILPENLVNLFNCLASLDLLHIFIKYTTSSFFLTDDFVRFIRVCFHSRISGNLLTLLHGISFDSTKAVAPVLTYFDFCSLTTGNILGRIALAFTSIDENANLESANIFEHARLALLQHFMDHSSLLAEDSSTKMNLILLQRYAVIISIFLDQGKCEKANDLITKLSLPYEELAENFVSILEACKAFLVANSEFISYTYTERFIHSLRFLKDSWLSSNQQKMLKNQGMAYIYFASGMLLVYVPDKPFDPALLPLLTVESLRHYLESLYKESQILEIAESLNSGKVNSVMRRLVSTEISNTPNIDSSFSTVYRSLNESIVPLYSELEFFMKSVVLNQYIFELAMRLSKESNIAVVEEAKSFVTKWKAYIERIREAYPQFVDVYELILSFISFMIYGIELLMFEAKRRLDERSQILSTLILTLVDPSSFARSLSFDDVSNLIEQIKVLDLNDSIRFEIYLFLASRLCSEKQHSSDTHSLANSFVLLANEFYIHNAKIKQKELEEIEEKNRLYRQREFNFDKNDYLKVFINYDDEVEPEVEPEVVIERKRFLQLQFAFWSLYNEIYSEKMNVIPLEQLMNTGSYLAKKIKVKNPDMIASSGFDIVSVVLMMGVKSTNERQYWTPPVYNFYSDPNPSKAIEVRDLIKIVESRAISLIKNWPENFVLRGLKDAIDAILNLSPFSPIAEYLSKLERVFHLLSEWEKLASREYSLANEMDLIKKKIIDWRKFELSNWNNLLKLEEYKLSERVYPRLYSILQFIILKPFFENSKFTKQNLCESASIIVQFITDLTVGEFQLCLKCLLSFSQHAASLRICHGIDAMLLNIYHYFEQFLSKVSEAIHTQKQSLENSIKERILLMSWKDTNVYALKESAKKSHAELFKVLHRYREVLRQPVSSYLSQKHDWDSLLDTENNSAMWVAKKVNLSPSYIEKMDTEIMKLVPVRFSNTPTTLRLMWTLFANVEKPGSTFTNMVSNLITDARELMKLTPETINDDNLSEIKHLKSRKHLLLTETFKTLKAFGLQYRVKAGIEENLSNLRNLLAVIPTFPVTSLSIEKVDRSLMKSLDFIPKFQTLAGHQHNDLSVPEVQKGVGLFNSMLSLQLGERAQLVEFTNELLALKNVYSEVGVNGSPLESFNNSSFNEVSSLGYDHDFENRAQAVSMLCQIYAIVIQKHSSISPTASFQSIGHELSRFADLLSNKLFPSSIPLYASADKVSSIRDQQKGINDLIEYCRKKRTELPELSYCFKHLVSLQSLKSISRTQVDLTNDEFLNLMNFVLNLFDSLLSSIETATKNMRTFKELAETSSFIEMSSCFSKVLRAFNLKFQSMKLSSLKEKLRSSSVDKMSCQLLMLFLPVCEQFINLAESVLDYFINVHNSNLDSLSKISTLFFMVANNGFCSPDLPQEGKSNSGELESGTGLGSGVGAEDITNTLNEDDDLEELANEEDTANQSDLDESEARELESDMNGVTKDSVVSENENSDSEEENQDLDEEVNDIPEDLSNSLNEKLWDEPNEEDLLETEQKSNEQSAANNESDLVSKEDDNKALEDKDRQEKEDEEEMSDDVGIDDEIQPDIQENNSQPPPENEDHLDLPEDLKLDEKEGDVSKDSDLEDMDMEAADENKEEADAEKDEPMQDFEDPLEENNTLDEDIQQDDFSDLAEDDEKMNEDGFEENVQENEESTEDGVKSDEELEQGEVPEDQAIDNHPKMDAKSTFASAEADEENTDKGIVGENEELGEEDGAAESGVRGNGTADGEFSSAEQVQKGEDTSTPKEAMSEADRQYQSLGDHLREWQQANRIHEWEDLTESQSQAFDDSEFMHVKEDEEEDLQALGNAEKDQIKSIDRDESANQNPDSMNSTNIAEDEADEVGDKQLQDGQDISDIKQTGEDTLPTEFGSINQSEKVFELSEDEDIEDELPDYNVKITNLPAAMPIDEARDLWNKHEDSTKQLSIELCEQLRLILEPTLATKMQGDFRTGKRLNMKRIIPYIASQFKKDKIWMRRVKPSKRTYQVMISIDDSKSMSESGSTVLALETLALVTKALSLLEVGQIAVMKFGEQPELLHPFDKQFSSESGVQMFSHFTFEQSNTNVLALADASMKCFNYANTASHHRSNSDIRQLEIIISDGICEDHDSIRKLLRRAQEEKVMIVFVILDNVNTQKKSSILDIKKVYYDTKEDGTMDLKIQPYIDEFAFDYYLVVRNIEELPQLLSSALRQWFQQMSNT

Structure (SMILES): Nc1ncnc2c1ncn2[C@@H]1O[C@H](COP(=O)(O)OP(=O)(O)OP(=O)(O)O)[C@@H](O)[C@H]1O [ATP]
ATP hydrolysis by purified enzyme (radioactive and NADH-coupled ATPase assays) (Mdn1 (Midasin) [1]): ~ 1.0 s^–1 (specific activity at 1 mM MgATP)

inhibition at 1 µM (Mdn1 (Midasin) [2]): ~40%
Structure (SMILES): C=C(C)CSc1nnc2c(n1)[nH]c1ccccc12 [compound 1, Rbin-1]

EC50 (Mdn1 (Midasin) [3]): ~300 nM
Structure (SMILES): C=C(C)CSc1nnc2c(n1)[nH]c1cc(Br)ccc12 [compound 15, Rbin-2]
